Experimental data published in patent US7560466B2, “Methods of treating or preventing autoimmune diseases with 2,4-pyrimidinediamine compounds” (Rigel Pharmaceuticals, Inc., priority 2003, dated 2009).
Where a name gives a salt, the structure may show the parent alone. Read-outs that look alike come from different tables or passages of the source.

Tests used:
[1] = system: cultured human mast cells (CHMC), ionomycin-induced degranulation; experiment: CHMC low cell density ionomycin activation: tryptase assay; format: cell-based; details: low cell density CHMC, ionomycin activation, 3-point, read-out: LD Tryptase, CHMC, Iono, 3pt
[2] = system: cultured human mast cells (CHMC), IgE-induced degranulation; experiment: CHMC low cell density IgE activation: tryptase assay; format: cell-based; details: low cell density CHMC
In short: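 Tryptase release read fluorogenically (30 min, room temperature) from supernatants of anti-IgE-challenged cultured human mucosal mast cells derived from umbilical cord CD34+ cells, at low density of 1000–1500 cells/well.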

[3] = 3-point, read-out: LD Tryptase, CHMC, IgE, 3pt
[4] = 8-point, read-out: LD Tryptase, CHMC, IgE, 8pt

| IC50 [1] | IC50 [2, 3] | IC50 [2, 4] | SMILES |
| --- | --- | --- | --- |
| > 10 µM | < 10 µM | – | Cc1cc(Nc2ncc(F)c(Nc3ccc4c(n3)NC(=O)C(C)(C)O4)n2)cc(Cl)c1OC1CCCC1 [Compound 1027, N2-(3-Chloro-4-cyclopentyloxy-5-methylphenyl)-N4-(2,2-dimethyl-3-oxo-4H-5-pyrid[1,4]oxazin-6-yl)-5-fluoro-2,4-pyrimidinediamine] |
| > 10 µM | < 10 µM | < 10 µM | CC1(C)Oc2ccc(Nc3nc(Nc4cccc(-c5ncco5)c4)ncc3F)nc2NC1=O [Compound 1028, N4-(2,2-Dimethyl-3-oxo-4H-5-pyrid[1,4]oxazin-6-yl)-5-fluoro-N2-[3-(oxazol-2-yl)phenyl]-2,4-pyrimidinediamine] |
| > 10 µM | < 10 µM | < 10 µM | CC1(C)Oc2ccc(Nc3nc(Nc4cccc(-c5cocn5)c4)ncc3F)nc2NC1=O [Compound 1029, N4-(2,2-Dimethyl-3-oxo-4H-5-pyrid[1,4]oxazin-6-yl)-5-fluoro-N2-[3-(oxazol-4-yl)phenyl]-2,4-pyrimidinediamine] |
| < 10 µM | – | > 10 µM | Cc1cc(Nc2ncc(F)c(Nc3ccc4c(n3)NC(=O)C(C)(C)O4)n2)cc(Cl)c1OC(C)C [Compound 1040, N2-(3-Chloro-4-isopropoxy-5-methylphenyl)-N4-(2,2-dimethyl-3-oxo-4H-5-pyrid[1,4]oxazin-6-yl)-5-fluoro-2,4-pyrimidinediamine] |
| > 10 µM | < 10 µM | < 10 µM | CCn1ncc2ccc(Nc3ncc(F)c(Nc4ccc5c(n4)NC(=O)C(C)(C)O5)n3)cc21 [Compound 1049, N4-(2,2-Dimethyl-3-oxo-4H-5-pyrid[1,4]oxazin-6-yl)-N2-(1-ethylindazol-6-yl)-5-fluoro-2,4-pyrimidinediamine] |
| > 10 µM | < 10 µM | < 10 µM | CC(C)n1ncc2ccc(Nc3ncc(F)c(Nc4ccc5c(n4)NC(=O)C(C)(C)O5)n3)cc21 [Compound 1050, N4-(2,2-Dimethyl-3-oxo-4H-5-pyrid[1,4]oxazin-6-yl)-N2-(1-isopropylindazol-6-yl)-5-fluoro-2,4-pyrimidinediamine] |
| > 10 µM | < 10 µM | < 10 µM | CNC(=O)c1ccc(Nc2ncc(F)c(Nc3ccc4c(n3)NC(=O)C(C)(C)O4)n2)cc1Cl [Compound 1054, N2-[3-Chloro-4-(N-methylamino)carbonylphenyl]-N4-(2,2-dimethyl-3-oxo-4H-5-pyrid[1,4]oxazin-6-yl)-5-fluoro-2,4-pyrimidinediamine] |
| > 10 µM | < 10 µM | < 10 µM | CC1(C)Oc2ccc(Nc3nc(Nc4ccc5c(c4)OCCO5)ncc3F)nc2NC1=O [Compound 1055, N4-(2,2-Dimethyl-3-oxo-4H-5-pyrid[1,4]oxazin-6-yl)-N2-(3,4-ethylenedioxyphenyl)-5-fluoro-2,4-pyrimidinediamine] |

Continued, molecule first:

| SMILES | IC50 [1] | IC50 [2, 3] | IC50 [2, 4] |
| --- | --- | --- | --- |
| CNC(=O)COc1c(C)cc(Nc2ncc(F)c(Nc3ccc4c(n3)NC(=O)C(C)(C)O4)n2)cc1Cl [Compound 1037, N2-[3-Chloro-5-methyl-4-(N-methylamino)carbonylmethyleneoxyphenyl]-N4-(2,2-dimethyl-3-oxo-4H-5-pyrid[1,4]oxazin-6-yl)-5-fluoro-2,4-pyrimidinediamine] | > 10 µM | – | < 10 µM |
| CCOC(=O)COc1c(C)cc(Nc2ncc(F)c(Nc3ccc4c(n3)NC(=O)C(C)(C)O4)n2)cc1C [Compound 1038, N2-(3,5-Dimethyl-4-ethoxycarbonylmethyleneoxyphenyl)-N4-(2,2-dimethyl-3-oxo-4H-5-pyrid[1,4]oxazin-6-yl)-5-fluoro-2,4-pyrimidinediamine] | > 10 µM | – | < 10 µM |
| CNC(=O)COc1c(C)cc(Nc2ncc(F)c(Nc3ccc4c(n3)NC(=O)C(C)(C)O4)n2)cc1C [Compound 1041, N2-[3,5-Dimethyl-4-(N-methylamino)carbonylmethyleneoxyphenyl]-N4-(2,2-dimethyl-3-oxo-4H-5-pyrid[1,4]oxazin-6-yl)-5-fluoro-2,4-pyrimidinediamine] | < 10 µM | < 10 µM | < 10 µM |
| CCOC(=O)COc1c(C)cc(Nc2ncc(F)c(Nc3ccc4c(n3)NC(=O)C(C)(C)O4)n2)cc1Cl [Compound 1042, N2-(3-Chloro-4-ethoxycarbonylmethyleneoxy-5-methylphenyl)-N4-(2,2-dimethyl-3-oxo-4H-5-pyrid[1,4]oxazin-6-yl)-5-fluoro-2,4-pyrimidinediamine] | > 10 µM | > 10 µM | – |
| Cc1cc(Nc2ncc(F)c(Nc3ccc4c(n3)NC(=O)C(C)(C)O4)n2)cc(Cl)c1OCC(=O)NCC(O)CO (stereo not drawn) [Compound 1043, N2-[3-Chloro-4-[N-(2,3-dihydroxypropyl)amino]carbonylmethyleneoxy-5-methylphenyl]-N4-(2,2-dimethyl-3-oxo-4H-5-pyrid[1,4]oxazin-6-yl)-5-fluoro-2,4-pyrimidinediamine] | > 10 µM | < 10 µM | < 10 µM |
| Cc1cc(Nc2ncc(F)c(Nc3ccc4c(n3)NC(=O)C(C)(C)O4)n2)cc(C)c1OCC(=O)NC1CCCC1 [Compound 1044, N2-[3,5-Dimethyl-4-(N-cyclopentylamino)carbonylmethyleneoxyphenyl]-N4-(2,2-dimethyl-3-oxo-4H-5-pyrid[1,4]oxazin-6-yl)-5-fluoro-2,4-pyrimidinediamine] | > 10 µM | > 10 µM | > 10 µM |
| CNC(=O)COc1cccc(Nc2ncc(F)c(Nc3ccc4c(c3)NC(=O)C(F)(F)O4)n2)c1 [Compound 1045, N4-(2,2-Difluoro-3-oxo-4H-benz[1,4]oxazin-6-yl)-5-fluoro-N2-[3-(N-methylamino)carbonylmethyleneoxyphenyl]-2,4-pyrimidinediamine Hydrogen Chloride Salt] | > 10 µM | < 10 µM | < 10 µM |
| CNC(=O)COc1cccc(Nc2ncc(F)c(Nc3ccc4c(c3)NC(=O)C(F)(F)O4)n2)c1 [Compound 1046, N4-(2,2-Difluoro-3-oxo-4H-benz[1,4]oxazin-6-yl)-5-fluoro-N2-[3-(N-methylamino)carbonylmethyleneoxyphenyl]-2,4-pyrimidinediamine Methanesulfonic Acid Salt] | > 10 µM | < 10 µM | < 10 µM |
| CC1(C)CNc2nc(Nc3nc(Cl)ncc3F)ccc2O1 [Compound 1051, 2-Chloro-N4-(3,4-dihydro-2,2-dimethyl-4H-5-pyrid[1,4]oxazin-6-yl)-5-fluoro-4-pyrimidinea mine] | > 10 µM | > 10 µM | – |
| Cn1ncc2ccc(Nc3ncc(F)c(Nc4ccc5c(n4)NCC(C)(C)O5)n3)cc21 [Compound 1052, N4-(3,4-Dihydro-2,2-dimethyl-4H-5-pyrid[1,4]oxazin-6-yl)-5-fluoro-N2-(1-methylindazol-6-yl)-2,4-pyrimidinediamine] | < 10 µM | < 10 µM | < 10 µM |
| CNC(=O)COc1cccc(Nc2ncc(F)c(Nc3ccc4c(n3)NCC(C)(C)O4)n2)c1 [Compound 1053, N4-(3,4-Dihydro-2,2-dimethyl-4H-5-pyrid[1,4]oxazin-6-yl)-5-fluoro-N2-[3-(N-methylamino)carbonylmethyleneoxyphenyl]-2,4-pyrimidinediamine] | > 10 µM | < 10 µM | < 10 µM |
